Experimental data published in US20220213082A1, “PRODRUG OF CASPASE INHIBITOR” (LG CHEM, LTD., priority 2019, published 2022).

System: recombinant human carboxylesterases (CE1b, CE1c and CE2)
Assay: Hydrolysis test by hydrolase (recombinant human carboxylesterases)
Format: in vitro ADME
Description: Various recombinant human carboxylesterases (CE1b, CE1c and CE2) were prepared in order to confirm the hydrolysis tendency of the prodrug by carboxylesterase (CE) which is a hydrolase. The initial enzyme concentration provided by the manufacturer was 5 mg/mL, which was diluted 1/50 in 100 mM potassium phosphate buffer to obtain a protein solution of 100 μg/mL. For the compound of Example 1—which is a prodrug compound to be tested, 5 mg/mL DMSO stock was used as a working solution, which was diluted 1/100 in acetonitrile to obtain 50 μg/mL concentration solution, and again diluted to a concentration of 1/100 in 100 mM potassium phosphate buffer to obtain a drug solution with a final concentration of 500 ng/mL. […] The samples were deproteinized with acetonitrile containing an internal standard (IS) and centrifuged, and the supernatant was injected into LC-MS/MS for analysis. By correcting the obtained peak area of the prodrug with the peak area of IS, the peak response at the time of collection of each sample was obtained, and the residual ratio (% remaining) compared to the initial value was converted. […]
Such result is analyzed that the compound of Example 1 was hydrolyzed by an esterase present in the reaction system and converted into a compound of Formula 2, which is the parent drug.

For `CC(=O)O[C@]1(CF)OC(=O)C[C@@H]1NC(=O)[C@]1(C(C)C)CC(c2nccc3ccccc23)=NO1` [Example 1, (2S,3S)-2-(fluoromethyl)-3-((R)-5-isopropyl-3-(isoquinolin-1-yl)-4,5-dihydroisoxazole-5-carboxamido)-5-oxotetrahydrofuran-2-yl acetate], the “contribution of each human recombinant CE isozyme to hydrolysis into compound of Formula 2” value (CE1b, CE1c, CE2 compared) was “greater by CE1b and CE1c than by CE2” and the “residual ratio (% remaining) of prodrug” value (spiked with human recombinant CE isozyme, after reaction for 60 minutes, LC-MS/MS) was “most of the prodrug was lost”.
